Laboratory results reported in ChEMBL document CHEMBL1158522, “Design, synthesis, and pharmacological evaluation of phenoxy pyridyl derivatives as dual norepinephrine reuptake inhibitors and 5-HT1A partial agonists” (Bioorg Med Chem Lett, 2010).

Assays:
[1] = biological target: T1, Sodium-dependent noradrenaline transporter (Homo sapiens, UniProt P23975); assay: Displacement of [3H]nisoxetine from human NET expressed in HEK293 cells by scintillation proximity assay; type: cell-based
[2] = biological target: T2, Sodium-dependent serotonin transporter (Homo sapiens, UniProt P31645); assay: Displacement of [3H]citalopram from human SERT expressed in HEK293 cells by scintillation proximity assay; type: cell-based
[3] = biological target: T3, Sodium-dependent dopamine transporter (Homo sapiens, UniProt Q01959); assay: Displacement of [3H]WIN-35428 from human DAT expressed in HEK293 cells by scintillation proximity assay; type: cell-based
[4] = biological target: T4, 5-hydroxytryptamine receptor 1A (Homo sapiens, UniProt P08908); assay: Displacement of [3H]8-OH-DPAT from human cloned 5HT1A receptor by filtration techniques
T4 sequence (P08908 whole entry): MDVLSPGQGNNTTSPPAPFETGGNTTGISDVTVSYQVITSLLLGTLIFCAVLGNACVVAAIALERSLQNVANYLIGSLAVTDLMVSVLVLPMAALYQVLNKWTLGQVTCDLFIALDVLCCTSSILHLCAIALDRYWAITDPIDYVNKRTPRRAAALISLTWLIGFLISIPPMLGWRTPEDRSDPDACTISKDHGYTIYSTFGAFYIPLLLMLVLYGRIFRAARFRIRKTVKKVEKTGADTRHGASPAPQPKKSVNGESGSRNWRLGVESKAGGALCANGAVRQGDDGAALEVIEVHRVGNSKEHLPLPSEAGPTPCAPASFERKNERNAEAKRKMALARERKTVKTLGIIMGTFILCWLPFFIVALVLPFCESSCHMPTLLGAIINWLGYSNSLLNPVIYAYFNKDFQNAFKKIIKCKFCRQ

[5] = biological target: T5, 5-hydroxytryptamine receptor 1A (Homo sapiens) (UniProt P08908); assay: Intrinsic activity at 5HT1A receptor by GTPgammaS assay; type: functional
T5 sequence (whole entry): T4 sequence (P08908 whole entry)

[6] = Plasma concentration rat at 10 mg/kg, sc after 1 hr; type: ADME, organism-based; design: dose 10 mg/kg, route subcutaneous
[7] = biological target: T3, Sodium-dependent dopamine transporter; assay: Agonist activity at DAT; type: functional
[8] = Ratio of EC50 for SERT to EC50 for NET
[9] = biological target: T2, Sodium-dependent serotonin transporter; assay: Agonist activity at SERT; type: functional
[10] = biological target: T4, 5-hydroxytryptamine receptor 1A; assay: Agonist activity at 5HT1A receptor by GTPgammaS assay; type: functional
Rattus norvegicus [11] = assay: Ex vivo 5HT1A receptor occupancy in rat brain at 10 mg/kg, sc after 1 hr; type: functional; settings: route subcutaneous
[12] = biological target: T1, Sodium-dependent noradrenaline transporter; assay: Agonist activity at NET; type: functional
Rattus norvegicus [13] = assay: Ex vivo NET occupancy in rat brain at 10 mg/kg, sc after 1 hr; type: functional; settings: route subcutaneous

T1 sequence (P23975 whole entry): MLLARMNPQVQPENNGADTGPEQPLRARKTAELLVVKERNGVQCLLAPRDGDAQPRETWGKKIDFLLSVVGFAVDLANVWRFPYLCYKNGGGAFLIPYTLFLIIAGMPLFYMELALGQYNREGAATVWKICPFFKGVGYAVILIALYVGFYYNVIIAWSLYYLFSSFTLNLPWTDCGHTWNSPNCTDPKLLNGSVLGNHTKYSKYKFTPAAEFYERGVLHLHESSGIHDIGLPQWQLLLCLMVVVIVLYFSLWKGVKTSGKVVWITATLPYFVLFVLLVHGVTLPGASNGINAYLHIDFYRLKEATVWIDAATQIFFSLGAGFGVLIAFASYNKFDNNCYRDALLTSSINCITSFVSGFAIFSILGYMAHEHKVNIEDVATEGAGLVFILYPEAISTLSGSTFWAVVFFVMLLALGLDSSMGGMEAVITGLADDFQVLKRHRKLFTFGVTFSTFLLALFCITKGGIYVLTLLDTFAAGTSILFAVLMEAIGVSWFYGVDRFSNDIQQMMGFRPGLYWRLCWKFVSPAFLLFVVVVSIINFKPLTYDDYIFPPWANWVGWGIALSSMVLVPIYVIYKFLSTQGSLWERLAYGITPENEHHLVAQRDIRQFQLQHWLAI
T2 sequence (P31645 whole entry): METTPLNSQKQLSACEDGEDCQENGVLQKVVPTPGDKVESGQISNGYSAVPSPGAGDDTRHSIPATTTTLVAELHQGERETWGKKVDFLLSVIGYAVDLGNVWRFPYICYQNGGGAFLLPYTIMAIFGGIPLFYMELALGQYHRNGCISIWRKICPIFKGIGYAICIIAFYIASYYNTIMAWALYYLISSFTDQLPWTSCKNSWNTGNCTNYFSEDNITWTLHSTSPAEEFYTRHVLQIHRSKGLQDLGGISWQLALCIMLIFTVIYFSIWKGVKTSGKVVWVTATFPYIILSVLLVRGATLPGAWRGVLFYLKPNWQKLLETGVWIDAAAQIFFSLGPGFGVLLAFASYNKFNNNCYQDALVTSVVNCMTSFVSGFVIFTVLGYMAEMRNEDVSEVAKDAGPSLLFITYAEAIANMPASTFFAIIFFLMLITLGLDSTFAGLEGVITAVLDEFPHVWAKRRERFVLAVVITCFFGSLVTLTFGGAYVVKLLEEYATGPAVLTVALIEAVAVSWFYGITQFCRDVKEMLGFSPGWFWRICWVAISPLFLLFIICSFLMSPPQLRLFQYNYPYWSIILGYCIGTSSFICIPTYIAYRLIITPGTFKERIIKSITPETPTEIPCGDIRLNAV
T3 sequence (Q01959 whole entry): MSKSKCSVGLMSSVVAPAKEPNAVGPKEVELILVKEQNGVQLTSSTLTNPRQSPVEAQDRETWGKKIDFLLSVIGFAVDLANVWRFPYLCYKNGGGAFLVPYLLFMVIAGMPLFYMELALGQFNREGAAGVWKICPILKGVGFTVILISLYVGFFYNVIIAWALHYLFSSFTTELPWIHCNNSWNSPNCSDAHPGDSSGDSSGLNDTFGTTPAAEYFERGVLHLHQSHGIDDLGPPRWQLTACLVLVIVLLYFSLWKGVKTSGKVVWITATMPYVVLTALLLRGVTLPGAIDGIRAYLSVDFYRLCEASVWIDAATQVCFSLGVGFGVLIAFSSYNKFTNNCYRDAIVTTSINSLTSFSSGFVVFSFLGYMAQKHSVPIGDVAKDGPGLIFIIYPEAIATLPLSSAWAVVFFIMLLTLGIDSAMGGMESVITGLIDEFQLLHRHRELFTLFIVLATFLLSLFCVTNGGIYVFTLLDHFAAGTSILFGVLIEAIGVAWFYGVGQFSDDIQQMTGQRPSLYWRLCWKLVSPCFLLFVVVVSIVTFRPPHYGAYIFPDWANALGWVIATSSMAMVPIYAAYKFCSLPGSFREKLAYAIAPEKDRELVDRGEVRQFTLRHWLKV

In the case of `Cc1cccc(F)c1Oc1ncccc1C1CCNCC1`, the Ki [1] is reported as 27 nM, the Ki [2] is reported as 102 nM and the Ki [3] is reported as over 6370 nM. The Ki [4] was 10 nM.

`Cc1ccccc1Oc1ncccc1C1CCNCC1` showed a Ki [1] of 330 nM, a Ki [2] of 292 nM and a Ki [3] of over 6170 nM. It also gave a Ki [4] of 60 nM.

`Cc1ccc(Oc2ncccc2C2CCNCC2)c(F)c1` gave a Ki [1] of 921 nM, a Ki [2] of 36 nM and a Ki [3] of over 6140 nM. It also gave a Ki [4] of 5.5 nM.

With `Fc1cccc(F)c1Oc1ncccc1C1CCNCC1` the Ki [2] was 1850 nM, the Ki [3] was over 6630 nM and the Ki [4] was 7.2 nM.

With `Fc1ccccc1Oc1ncccc1C1CCNCC1` the Ki [1] was 536 nM, the Ki [2] was 728 nM and the Ki [3] was over 6180 nM. For the same compound, the Ki [4] was 13 nM.

`Fc1cccc(Cl)c1Oc1ncccc1N1CCNCC1` showed a Ki [1] of 663 nM, a Ki [2] of over 4710 nM and a Ki [3] of over 6320 nM. It also gave a Ki [4] of 3.7 nM.

With `Clc1ccccc1Oc1ncccc1C1CCNCC1` the Ki [1] was 74 nM, the Ki [2] was 57 nM and the Ki [3] was 5150 nM. It also gave a Ki [4] of 16 nM.

Work on `Clc1ccccc1Oc1ncccc1N1CCNCC1` yielded a Ki [1] of 747 nM, a Ki [2] of over 4710 nM and a Ki [3] of over 6320 nM. It also gave a Ki [4] of 4.5 nM.

With `Fc1cccc(Cl)c1Oc1ncccc1C1CCNCC1` the Ki [1] was 33 nM, the Ki [2] was 194 nM and the Intrinsic activity [5] was 37%. For the same compound, the concentration at 1 h [6] was 777 ng/mL, the EC50 [7] was 6880 nM and the Ratio EC50 [8] was 45. For the same compound, the EC50 [9] was 409 nM, the EC50 [10] was 89 nM and the Ki [3] was over 6180 nM. For the same compound, the Activity (Rattus norvegicus [11]) was 37.4%, the EC50 [12] was 9 nM and the Ki [4] was 11 nM. It also gave an Activity (Rattus norvegicus [13]) of 75.3%.

Compound `FC(F)(F)c1ccccc1Oc1ncccc1C1CCNCC1` has a Ki [1] of 140 nM, a Ki [2] of 203 nM and a Ki [3] of over 6650 nM. It also gave a Ki [4] of 71 nM.

With `Fc1cccc(Oc2ncccc2C2CCNCC2)c1F` the Ki [1] was 1810 nM, the Ki [2] was 109 nM and the Ki [3] was over 6650 nM. For the same compound, the Ki [4] was 173 nM.

For `Clc1ccc(Oc2ncccc2C2CCNCC2)c(Cl)c1`, the Ki [1] was 413 nM, the Ki [2] was 2.7 nM and the Ki [3] was over 5500 nM. It also gave a Ki [4] of 37 nM.

`c1ccc(Oc2ncccc2C2CCNCC2)cc1` gave a Ki [1] of 2440 nM, a Ki [3] of 4310 nM and a Ki [4] of 101 nM.

Compound `Fc1ccc(Oc2ncccc2C2CCNCC2)c(F)c1` has a Ki [1] of 143 nM, a Ki [2] of 30 nM and a Ki [3] of 2590 nM. The Ki [4] was 29 nM.

Compound `COc1ccccc1Oc1ncccc1C1CCNCC1` has a Ki [1] of 292 nM, a Ki [2] of 610 nM and a Ki [3] of 6410 nM. The Ki [4] was 92 nM.

In the case of `Fc1ccc(Cl)c(Oc2ncccc2C2CCNCC2)c1`, the Ki [1] is reported as 247 nM, the Ki [2] is reported as 251 nM and the Ki [3] is reported as over 6220 nM. It also gave a Ki [4] of 17 nM.

With `COc1cccc(F)c1Oc1ncccc1C1CCNCC1` the Ki [1] was 276 nM, the Ki [2] was 887 nM and the Ki [3] was 6410 nM. For the same compound, the Ki [4] was 24 nM.

`Clc1cccc(Oc2ncccc2C2CCNCC2)c1Cl` gave a Ki [1] of 25 nM, a Ki [2] of 2 nM and a Ki [3] of 310 nM. It also gave a Ki [4] of 37 nM.

With `Fc1ccccc1Oc1cccc(F)c1C1CCNCC1` the Ki [1] was 32 nM, the Ki [2] was 1260 nM and the Intrinsic activity [5] was 84%. The EC50 [7] was 498 nM, the Ratio EC50 [8] was 33 and the EC50 [9] was 915 nM. For the same compound, the EC50 [10] was 341 nM, the Ki [3] was 278 nM and the EC50 [12] was 28 nM. For the same compound, the Ki [4] was 4.6 nM.
